PMC10661964 (Current Drug Metabolism, 2023)
pIC50: −log10 of the molar value. Where “and” joins values, the source holds several entries; their conditions need not be identical. Equal values may be shown once. Read-outs that look alike come from different tables or passages of the source. Marks after values point to notes of the source that are not given here.

Experiments:
[1] = Mass balance and metabolite profiling in excreta after i.v. [14C]-nifurtimox in bile duct-cannulated (BDC) rats; type: in vivo, male Wistar rats; conditions: for administered dose secreted directly into the gut: gastrointestinal tract + feces
Method: (§1) Animals were housed in suitable metabolism cages. […] Blood cells and plasma were separated by centrifugation. Plasma was stored at ≤-15°C prior to analysis. […] All biological samples were weighed immediately. […] The remaining carcass was also wet-weighed.

[2] = Plasma PK of total radioactivity, [14C]-nifurtimox and metabolites after oral dosing (HPLC-LSC); type: in vivo; conditions: male Wistar rats; for half-life / Tmax: rat; for half-life: read-out: t½ (converted)
Method: as §1
Aliquots of individual plasma samples were pooled separately for each timepoint by equal volume. For protein precipitation, pooled plasma was treated with a three-fold volume of acetonitrile. Samples were homogenized and precipitated by centrifugation (20,000 g, 5 min). Samples were concentrated and analyzed using high-performance liquid chromatography (HPLC) with off-line radioactivity detection by LSC (HPLC-LSC).

[3] = biological target: CYP 2C19 (Homo sapiens, UniProt P33261); test: CYP inhibition with probe substrate; type: in vitro ADME; conditions: probe substrate mephenytoin
Sequence of CYP 2C19 (Homo sapiens, UniProt P33261) (P33261 whole entry, canonical isoform): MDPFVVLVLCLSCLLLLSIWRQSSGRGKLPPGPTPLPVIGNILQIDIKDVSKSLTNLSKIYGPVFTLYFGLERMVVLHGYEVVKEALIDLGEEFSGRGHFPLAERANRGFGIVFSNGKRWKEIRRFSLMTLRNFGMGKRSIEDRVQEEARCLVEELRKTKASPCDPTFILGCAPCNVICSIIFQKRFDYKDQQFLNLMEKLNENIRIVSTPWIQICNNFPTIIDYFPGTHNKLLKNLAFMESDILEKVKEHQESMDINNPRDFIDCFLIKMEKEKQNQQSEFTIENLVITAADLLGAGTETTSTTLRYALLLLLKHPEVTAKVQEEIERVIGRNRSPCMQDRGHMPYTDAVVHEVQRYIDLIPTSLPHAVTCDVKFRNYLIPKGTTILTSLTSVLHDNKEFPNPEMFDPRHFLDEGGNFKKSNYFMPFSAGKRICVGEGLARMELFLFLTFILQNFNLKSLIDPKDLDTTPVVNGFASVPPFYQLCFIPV
Excerpt: (§2) The inhibition of cytochrome P450 (CYP) isoforms and a range of cellular transporters (except multidrug and toxin extrusion [MATE] proteins), as well as the induction of CYP isoforms were investigated using previously described methods.

[4] = test system: CYP 1A2; test: CYP induction (mRNA and CYP activity); type: in vitro ADME, human
Excerpt: as §2

[5] = test system: CYP 2B6; test: CYP induction (mRNA and CYP activity); type: in vitro ADME, human
Excerpt: as §2

[6] = test system: CYP 2C19; test: CYP induction (mRNA and CYP activity); type: in vitro ADME, human
Excerpt: as §2

[7] = test system: CYP 3A4; test: CYP induction (mRNA and CYP activity); type: in vitro ADME, human
Excerpt: as §2

[8] = biological target: T1, MATE2K (Homo sapiens, UniProt Q86VL8); test: MATE2K transport assay in overexpressing HEK293 cells; type: in vitro ADME; conditions: probe substrate metformin 90 µM
T1 construct: expressed in transfected cells; host or cells: HEK293, stably transfected
T1 sequence (Q86VL8 1-566 isoform Q86VL8-3): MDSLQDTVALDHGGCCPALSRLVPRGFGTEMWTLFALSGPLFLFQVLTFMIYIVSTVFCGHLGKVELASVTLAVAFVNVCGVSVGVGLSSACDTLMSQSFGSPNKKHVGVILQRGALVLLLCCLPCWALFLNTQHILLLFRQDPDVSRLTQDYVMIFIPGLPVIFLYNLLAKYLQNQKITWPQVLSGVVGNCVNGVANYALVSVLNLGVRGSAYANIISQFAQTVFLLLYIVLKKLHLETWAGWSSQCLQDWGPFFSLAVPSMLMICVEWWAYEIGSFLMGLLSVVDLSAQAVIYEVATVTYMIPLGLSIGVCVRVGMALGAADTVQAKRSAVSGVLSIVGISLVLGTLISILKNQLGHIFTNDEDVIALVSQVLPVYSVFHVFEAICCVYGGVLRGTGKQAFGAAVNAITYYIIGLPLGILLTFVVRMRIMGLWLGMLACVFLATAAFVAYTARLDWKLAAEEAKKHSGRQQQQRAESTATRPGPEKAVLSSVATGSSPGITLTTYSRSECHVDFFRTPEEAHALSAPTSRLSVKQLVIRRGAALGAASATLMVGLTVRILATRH
Method: as §2
Supplementary Material Current Drug Metabolism, 2023, Vol. 24, No. 8 iii […]
-, not determined; BCRP, breast cancer resistance protein; P-gp, P-glycoprotein; MATE, multidrug and toxin extrusion. aThe highest test concentration of 20 µM was not valid in this assay for technical reasons.
OAT, organic anion transporter; OATP, organic anion transporting polypeptide; OCT, organic cation transporters.
After thawing from frozen storage, aliquots of approximately 3 x 10^6 cells of human embryonic kidney (HEK293) cell line stable overex-pressing MATE1 or MATE2K were transferred to cell culture dishes containing 10 mL of DMEM-medium (supplemented with 10% FBS, 1% penicillin [10.000 U/mL]/streptomycin [10 mg/mL] and hygromycin B [150 µg/mL]) at 37°C. Transporter-transfected and vector-transfected HEK cells were grown on cell culture dishes at 37°C in a humidified 5% CO 2 atmosphere. All cell lines were confirmed free from mycoplasma by routine testing with conventional PCR. Cell cultures were split when they had grown to confluency. For passaging, cells were washed with PBS, exposed to trypsin-EDTA for 5 min at room temperature, collected by centrifugation, resuspended in culture medium and […]
MATE1 and MATE2K Transport Assays
Transporter-transfected and vector-transfected cells were prepared for use in uptake assays by harvesting and plating into 24-well-plates pre-coated with poly-D-lysine hydrobromide at a density of 2 x 10^5 cells/well and then cultured for 3 days in DMEM growth medium (high glucose, 10% FBS, 1% penicillin/streptomycin). For uptake assays, the growth medium was aspirated and each plate well was rinsed twice with HBSS supplemented with 20 mM HEPES, pH 7.4. The intracellular environment was acidified by preincubation in 30 mM NH4Cl in buffer pH 7.4 at 37°C for 30 min. […]

[9] = Mass balance and metabolite profiling in excreta after oral [14C]-nifurtimox in intact rats; conditions: for component excreted in urine, oral dosing: intact male Wistar rats, 2.5 mg/kg oral; for component excreted in urine, oral dosing / radioactivity excreted in urine / radioactivity excreted in feces: up to 120 h
Method: (§3) After an adaption period, the animals were prepared for the study. Bile duct cannulation was performed on selected animals the day before their use in experiments.
(§4) In a mass balance study (n = 5) and a PK study (n = 2 per timepoint), 2.5 mg/kg b.w. […] For i.v. administration, 2.5 mg/kg b.w. […] In an additional stability study, male Wistar rats (n = 3 per timepoint) were administered 2.5 mg/kg b.w. […] The total radioactivity concentration in the dosage form was confirmed by liquid scintillation counting (LSC).
(§5) Animals were housed in suitable metabolism cages. Blood was collected from separate rats at 0.25, 0.5, 1, 1.5, 2, 3, 5, and 8 h post-dose and stored in lithium heparinized tubes. Blood cells and plasma were separated by centrifugation. Plasma was stored at ≤-15°C prior to analysis. […] At the end of the study, the cages were rinsed with water, and samples were collected. All biological samples were weighed immediately. Feces samples were homogenized with water to obtain a uniform radioactivity distribution. All samples were stored deep-frozen at ≤-15/-70°C before further processing. During the necropsy, selected organs and tissues were collected and wet-weighed. The remaining carcass was also wet-weighed. The carcass and all tissues were homogenized and stored at room temperature prior to processing for analysis. In the stability study, blood and urine were collected at 0.25 and 0.5 h post-dose. Plasma and urine were immediately frozen in liquid nitrogen and stored at -80°C to prevent degradation. The total radioactivity in samples and tissues was determined by LSC after appropriate sample preparation.
(§6) Aliquots of individual urine or bile samples were pooled separately for each time interval by equal volume and analyzed using HPLC-LSC. Aliquots of individual feces samples were pooled separately for each time interval, ensuring that each aliquot contained the same amount of radioactivity. The pooled samples were extracted twice with a mixture of acetonitrile/water (80:20 v/v, 2 x 0.5 mL). The resulting suspensions were centrifuged (20,000 g, 5 min), and the supernatants were then combined for each time interval, concentrated, and subjected to HPLC-LSC.
(§7) The amount of total radioactivity in urine, feces, bile, and tissues was determined by multiplying the volume or weight of the samples by the respective total radioactivity concentration. The amount of radioactivity recovered in the excreta (AE), cage wash, and tissues was compared with the administered radioactive dose to establish the radioactive balance. Cumulative excretion was calculated as the sum of the excretion for each collection interval. Arithmetic means and coefficients of variation (CV) were calculated for these percentages. During metabolite profiling, the concentration or amount of each analyte for each sample and timepoint or interval was calculated by multiplying the total radioactivity concentration or amount excreted of each sample with the percent area of each analyte obtained after HPLC-LSC separation.

[10] = Stability study: metabolite profiles in snap-frozen plasma and urine at early timepoints after oral [14C]-nifurtimox; type: in vivo, male Wistar rats; conditions: for share of sample radioactivity in plasma / share of sample radioactivity in urine: oral 2.5 mg/kg, snap-frozen
Method: as §1
The combined supernatant was analyzed directly using HPLC-LSC.

[11] = rat, in vivo, 2.5 mg/kg
Method: as §3, §4, §5, §6, §7

[12] = rats, assuming oral bioavailability of 90% and fu 62.1%
[13] = within 2-3 days of oral or i.v. dosing in rats and dogs; cited from earlier work
[14] = humans, dogs, and rats, oral administration; cited from earlier work
[15] = cited from earlier work
[16] = BDC male Wistar rats, 2.5 mg/kg i.v., up to 24 h
[17] = single oral 2.5 mg/kg [14C]-nifurtimox, pooled plasma
[18] = 30-min preincubation, read-out: Pre- IC50 (+ NADPH)
[19] = coincubation, read-out: Co- IC50
[20] = total radioactivity, i.v. 2.5 mg/kg, BDC rats
[21] = total radioactivity, i.v. 2.5 mg/kg, BDC rats, 24 h
[22] = total radioactivity, i.v. 2.5 mg/kg, BDC rats, 24 h, listed as [^14C]-nifurtimox, 2.5 mg/kg
[23] = total radioactivity, i.v. 2.5 mg/kg, BDC rats, 24 h, listed as [14C]-nifurtimox, 2.5 mg/kg
[24] = oral, Medenwald et al. and seven healthy volunteers
[25] = total radioactivity, oral 2.5 mg/kg, intact rats
[26] = total radioactivity, oral 2.5 mg/kg, intact rats, listed as [^14C]-nifurtimox, 2.5 mg/kg

SMILES: CC1CS(=O)(=O)CCN1n1cc(SCC(N)C(=O)O)ccc1=O (stereo not shown) [M-4]
- component excreted in bile, i.v. dosing [1, 16]: 0.968 % of the administered dose
- %AUC(0-8) (relative to total radioactivity AUC(0-8)) ([2]; oral 2.5 mg/kg, M-2+M-3, M-4, M-5 are estimates based on AUC(0-tn), 2.5 mg/kg): 2.42^c %
- AUC [2, 17]: 791 µg-eq*h/L
- AUC(0-tn) [2, 17]: 107 µg-eq*h/L
- Cmax [2, 17]: 48.3 µg-eq/L
- tn (time of last quantifiable concentration) [2, 17]: 3 h
- half-life ([2]; single oral 2.5 mg/kg [14C]-nifurtimox, plasma, interval up to 8 h): 12.3 h
- Tmax [2, 17]: 0.5 h
- pIC50 [3, 18]: < 4.70
- pIC50 [3, 19]: < 4.70
- TDI (time-dependent inhibition) [3]: No
- concentration up to which no induction (mRNA and CYP activity) [4]: up to 80000 µg/L
- concentration up to which no induction (mRNA and CYP activity) [5]: up to 80000 µg/L
- concentration up to which no induction (mRNA and CYP activity) [6]: up to 80000 µg/L
- concentration up to which no induction (mRNA and CYP activity) [7]: up to 80000 µg/L
- pIC50 [8]: < 5.30
- component excreted in urine, oral dosing [9]: no M-4 was detected

SMILES: CC1CS(=O)(=O)CCN1N (stereo not shown) [M-6]
- pIC50 [3, 18]: < 4.00
- pIC50 [3, 19]: < 4.00
- TDI (time-dependent inhibition) [3]: No
- concentration up to which no induction (mRNA and CYP activity) [4]: up to 90000 µg/L
- concentration up to which no induction (mRNA and CYP activity) [5]: up to 90000 µg/L
- concentration up to which no induction (mRNA and CYP activity) [6]: up to 90000 µg/L
- concentration up to which no induction (mRNA and CYP activity) [7]: up to 90000 µg/L
- pIC50 [8]: < 4.52

SMILES: CC1CS(=O)(=O)CCN1/N=C/c1ccc([N+](=O)[O-])o1 (stereo not shown) [Nifurtimox, (E)-N-(3-methyl-1,1-dioxo-1,4-thiazinan-4-yl)-1-(5-nitrofuran-2-yl) methanimine, reference compound]
- component excreted in urine, i.v. dosing [1, 16]: 0.847 % of the administered dose
- component excreted in bile, i.v. dosing ([1]; BDC male Wistar rats, 2.5 mg/kg i.v., up to 24 h, 2.5 mg/kg): 0.560 % of the administered dose
- component excreted in bile, i.v. dosing ([1]; BDC male Wistar rats, 2.5 mg/kg i.v., up to 24 h, listed as nifurtimox, 2.5 mg/kg): 0.6 % of the administered dose
- administered dose excreted in bile within 24 h [1, 20]: 17.7%
- administered dose excreted in urine within 24 h [1, 20]: 49.6%
- recovery of administered radioactivity at 24 h [1, 20]: 94.2%
- dose in residues (body excluding the GIT) [1, 21]: 17.6%
- dose in the cage wash [1, 21]: 2.48%
- administered dose secreted directly into the gut ([1]; total radioactivity, i.v. 2.5 mg/kg, BDC rats, 24 h, 2.5 mg/kg): < 7%
- administered dose secreted directly into the gut [1, 22]: 6.9%
- dose excreted in feces [1, 23]: 2.45%
- dose present in the gastrointestinal tract including contents [1, 23]: 4.45%
- dose excreted in feces [1, 22]: 2.5%
- dose present in the gastrointestinal tract including contents [1, 22]: 4.5%
- t½ ([2]; single oral 2.5 mg/kg [14C]-nifurtimox, plasma, interval up to 8 h, 2.5 mg/kg): 1.44 h
- AUC [2, 17]: 1730 µg-eq*h/L
- AUC(0-8) [2, 17]: 1680 µg-eq*h/L
- AUC(0-tn) [2, 17]: 1570 µg-eq*h/L
- Cmax [2, 17]: 755 µg-eq/L
- tn (time of last quantifiable concentration) [2, 17]: 5 h
- half-life ([2]; male, Wistar, plasma, po, 2.5 mg/kg, single oral 2.5 mg/kg [14C]-nifurtimox, plasma, interval up to 8 h): 1.4 h
- Tmax [2, 17]: 0.5 h
- tmax of radioactivity ([2]; total radioactivity, oral 2.5 mg/kg): 0.5 h
- share of sample radioactivity in plasma ([10]; 0.25 h post-dose): 81.5 % of sample radioactivity
- share of sample radioactivity in urine ([10]; 0.25 h post-dose): 11 % of sample radioactivity
- share of sample radioactivity in plasma ([10]; 0.5 h post-dose): 72.5 % of sample radioactivity
- share of sample radioactivity in urine ([10]; 0.5 h post-dose): 4 % of sample radioactivity
- stability in plasma ([10]; authors' conclusion from plasma profiles): appears to be stable in plasma
- concentration up to which no induction (mRNA and CYP activity) [4]: up to 30000 µg/L
- concentration up to which no induction (mRNA and CYP activity) [5]: up to 30000 µg/L
- concentration up to which no induction (mRNA and CYP activity) [7]: up to 30000 µg/L
- pIC50 [8]: < 4.70
- component excreted in feces, oral dosing [11]: No unchanged drug was detected
- theoretical excretion based on glomerular filtration rate [12]: 23 % of the dose
- administered radioactivity detected in urine [13]: 40-50%
- unlabeled nifurtimox excreted in urine [14]: no more than 0.5 % of the administered dose
- tmax, patients who had eaten before dosing ([15]; Phase 1 food-effect PK study): 4 h
- Tmax [15, 24]: 2 to 3 h
- average elimination half-life (t½) [15, 24]: approximately 3 hours
- AUC greater in fed compared to fasting patients ([15]; same nifurtimox dose, Phase 1 food-effect study): 70%
- component excreted in urine, oral dosing ([9]; 2.5 mg/kg): 0.117 % of the administered dose
- component excreted in urine, oral dosing ([9]; listed as [^14C]-nifurtimox, 2.5 mg/kg): 0.1 % of the administered dose
- component excreted in urine, oral dosing ([9]; listed as nifurtimox, 2.5 mg/kg): < 1 % of the administered dose
- share of sample radioactivity in urine ([9]; pooled urine 0-8 h post-dose, oral 2.5 mg/kg): 0.3 % of sample radioactivity
- total recovery including excreta, residues, and cage wash ([9]; total radioactivity, 120 h after oral dosing): 97.3%
- administered radioactivity excreted within 24 h [9, 25]: approximately 86%
- radioactivity excreted within 120 h (urine + feces) [9, 25]: 92.4 % of dose
- radioactivity excreted in urine ([9]; total radioactivity, oral 2.5 mg/kg, intact rats, 2.5 mg/kg): 48.6 % of dose
- radioactivity excreted in feces ([9]; total radioactivity, oral 2.5 mg/kg, intact rats, listed as [14C]-nifurtimox, 2.5 mg/kg): 43.8 % of dose
- radioactivity excreted in feces [9, 26]: 43.8 % of dose and 49 % of dose
- radioactivity excreted in urine [9, 26]: 48.6 % of dose and 44 % of dose
